Values of other authors, collected in patent US20020051978A1, “Methods and compositions for the identification, assessment, prevention and therapy of human cancers” (priority 2000, published 2002).
Where two headings read alike, the source gives them in different places.

Test system: 60 cancer cell lines (NCI 60 cancer cell line series)
Details: cited from earlier work

SMILES: CS(=O)(=O)OCCCCOS(C)(=O)=O [Busulfan]
- -Log (GI50) (Breast BT-549 (CL5013)): 3.6
- -Log (GI50) (Breast HS-578T CL5006): 3.6
- -Log (GI50) (Breast MCF7(I) (CL5001)): 3.7
- -Log (GI50) (Breast MCF7/ADRr (CL5002)): 3.6
- -Log (GI50) (Breast MDA-MB-231 CL5005): 3.6
- -Log (GI50) (Breast MDA-MB-435 (CL5011)): 3.6
- -Log (GI50) (Breast MDA-N CL5012): 3.7
- -Log (GI50) (Breast T-47D (CL5014)): 3.6
- -Log (GI50) (CNS SF-268 CL12014): 3.8
- -Log (GI50) (CNS SF-295 CL12015): 3.7
- -Log (GI50) (CNS SF-539 CL12016): 3.6
- -Log (GI50) (CNS SNB-19 (CL12002)): 3.6
- -Log (GI50) (CNS SNB-75(I) CL12005): 3.8
- -Log (GI50) (CNS U251(I) CL12009): 3.6
- -Log (GI50) (Colon COLO-250 CL4010): 3.6
- -Log (GI50) (Colon HCC-2998 (CL4002)): 3.7
- -Log (GI50) (Colon HCT-15 CL4015): 3.6
- -Log (GI50) (Colon HCT-116 (CL4003)): 3.6
- -Log (GI50) (Colon HT29(I) CL4001): 3.6
- -Log (GI50) (Colon KM12 (CL4017)): 3.6
- -Log (GI50) (Colon SW-620 (CL4009)): 3.7
- -Log (GI50) (Leukemia CCRF-CEM(I) (CL7003)): 3.8
- -Log (GI50) (Leukemia HL-60(I) (CL7008)): 3.8
- -Log (GI50) (Leukemia K562(I) CL7005): 3.6
- -Log (GI50) (Leukemia MOLT-4 (CL7006)): 3.9
- -Log (GI50) (Leukemia RPMI-8226(I) (CL7010)): 3.6
- -Log (GI50) (Leukemia SR CL7019): 4.1
- -Log (GI50) (Melanoma LOX IMVI CL10001): 3.7
- -Log (GI50) (Melanoma M14 (CL10014)): 3.6
- -Log (GI50) (Melanoma MALME-3M CL10002): 3.6
- -Log (GI50) (Melanoma SK-MEL-2 (CL10005)): 3.6
- -Log (GI50) (Melanoma SK-MEL-5 (CL10007)): 3.6
- -Log (GI50) (Melanoma SK-MEL-28 (CL10008)): 3.7
- -Log (GI50) (Melanoma UACC-62 (CL10020)): 3.7
- -Log (GI50) (Melanoma UACC-257 (CL10021)): 3.7
- -Log (GI50) (NCSLC NCI-H522 CL1003): 3.6
- -Log (GI50) (NSCLC A549/ATCC (CL1004)): 3.7
- -Log (GI50) (NSCLC EKVX (CL1008)): 3.7
- -Log (GI50) (NSCLC HOP-62 (CL1026)): 3.7
- -Log (GI50) (NSCLC HOP-92 (CL1029)): 3.8
- -Log (GI50) (NSCLC NCI-H23(I) CL1001): 3.6
- -Log (GI50) (NSCLC NCI-H226 CL1013): 3.7
- -Log (GI50) (NSCLC NCI-H332M CL1017): 3.6
- -Log (GI50) (NSCLC NCI-H460 CL1021): 4.0
- -Log (GI50) (Ovarian IGROV1 CL6010): 3.6
- -Log (GI50) (Ovarian OVCAR-3 CL6001): 3.7
- -Log (GI50) (Ovarian OVCAR-4 CL6002): 3.7
- -Log (GI50) (Ovarian OVCAR-5 CL6003): 3.6
- -Log (GI50) (Ovarian OVCAR-8 CL6005): 3.6
- -Log (GI50) (Ovarian SK-OV-3 CL6011): 3.6
- -Log (GI50) (Prostate DU-145 CL11003): 3.7
- -Log (GI50) (Prostate PC-3(I) CL11001): 3.6
- -Log (GI50) (Renal 786-O CL9018): 3.6
- -Log (GI50) (Renal A498 CL9013): 3.6
- -Log (GI50) (Renal ACHN CL9023): 3.8
- -Log (GI50) (Renal CAKI-1 CL9015): 3.9
- -Log (GI50) (Renal RXF-393 CL9016): 3.9
- -Log (GI50) (Renal SN12C CL9008): 3.6
- -Log (GI50) (Renal TK10 CL9024): 3.6
- -Log (GI50) (Renal UO-31 CL9004): 3.6

SMILES: O=C(O)CCCc1ccc(N(CCCl)CCCl)cc1 [Chlorambucil]
- -Log (GI50) (Breast BT-549 (CL5013)): 4.0
- -Log (GI50) (Breast HS-578T CL5006): 3.7
- -Log (GI50) (Breast MCF7(I) (CL5001)): 4.5
- -Log (GI50) (Breast MCF7/ADRr (CL5002)): 4.3
- -Log (GI50) (Breast MDA-MB-231 CL5005): 3.8
- -Log (GI50) (Breast MDA-MB-435 (CL5011)): 3.9
- -Log (GI50) (Breast MDA-N CL5012): 3.9
- -Log (GI50) (Breast T-47D (CL5014)): 4.3
- -Log (GI50) (CNS SF-268 CL12014): 4.5
- -Log (GI50) (CNS SF-295 CL12015): 4.4
- -Log (GI50) (CNS SF-539 CL12016): 4.6
- -Log (GI50) (CNS SNB-19 (CL12002)): 4.0
- -Log (GI50) (CNS SNB-75(I) CL12005): 4.3
- -Log (GI50) (CNS U251(I) CL12009): 4.4
- -Log (GI50) (Colon COLO-250 CL4010): 3.9
- -Log (GI50) (Colon HCC-2998 (CL4002)): 4.0
- -Log (GI50) (Colon HCT-15 CL4015): 4.0
- -Log (GI50) (Colon HCT-116 (CL4003)): 4.0
- -Log (GI50) (Colon HT29(I) CL4001): 3.9
- -Log (GI50) (Colon KM12 (CL4017)): 3.8
- -Log (GI50) (Colon SW-620 (CL4009)): 4.1
- -Log (GI50) (Leukemia CCRF-CEM(I) (CL7003)): 5.2
- -Log (GI50) (Leukemia HL-60(I) (CL7008)): 5.1
- -Log (GI50) (Leukemia K562(I) CL7005): 3.9
- -Log (GI50) (Leukemia MOLT-4 (CL7006)): 5.3
- -Log (GI50) (Leukemia RPMI-8226(I) (CL7010)): 4.1
- -Log (GI50) (Leukemia SR CL7019): 5.2
- -Log (GI50) (Melanoma LOX IMVI CL10001): 4.4
- -Log (GI50) (Melanoma M14 (CL10014)): 4.2
- -Log (GI50) (Melanoma MALME-3M CL10002): 4.2
- -Log (GI50) (Melanoma SK-MEL-2 (CL10005)): 3.8
- -Log (GI50) (Melanoma SK-MEL-5 (CL10007)): 4.1
- -Log (GI50) (Melanoma SK-MEL-28 (CL10008)): 4.0
- -Log (GI50) (Melanoma UACC-62 (CL10020)): 4.7
- -Log (GI50) (Melanoma UACC-257 (CL10021)): 4.1
- -Log (GI50) (NCSLC NCI-H522 CL1003): 4.6
- -Log (GI50) (NSCLC A549/ATCC (CL1004)): 4.2
- -Log (GI50) (NSCLC EKVX (CL1008)): 3.8
- -Log (GI50) (NSCLC HOP-62 (CL1026)): 4.4
- -Log (GI50) (NSCLC HOP-92 (CL1029)): 4.2
- -Log (GI50) (NSCLC NCI-H23(I) CL1001): 4.6
- -Log (GI50) (NSCLC NCI-H226 CL1013): 4.1
- -Log (GI50) (NSCLC NCI-H332M CL1017): 3.7
- -Log (GI50) (NSCLC NCI-H460 CL1021): 4.9
- -Log (GI50) (Ovarian IGROV1 CL6010): 3.9
- -Log (GI50) (Ovarian OVCAR-3 CL6001): 4.0
- -Log (GI50) (Ovarian OVCAR-4 CL6002): 3.9
- -Log (GI50) (Ovarian OVCAR-5 CL6003): 4.0
- -Log (GI50) (Ovarian OVCAR-8 CL6005): 4.1
- -Log (GI50) (Ovarian SK-OV-3 CL6011): 4.0
- -Log (GI50) (Prostate DU-145 CL11003): 4.2
- -Log (GI50) (Prostate PC-3(I) CL11001): 4.0
- -Log (GI50) (Renal 786-O CL9018): 4.5
- -Log (GI50) (Renal A498 CL9013): 3.9
- -Log (GI50) (Renal ACHN CL9023): 4.8
- -Log (GI50) (Renal CAKI-1 CL9015): 4.8
- -Log (GI50) (Renal RXF-393 CL9016): 4.6
- -Log (GI50) (Renal SN12C CL9008): 4.5
- -Log (GI50) (Renal TK10 CL9024): 3.8
- -Log (GI50) (Renal UO-31 CL9004): 4.2
